Assay results taken from patent US20230375530A1, “HUMAN BLOOD-BRAIN BARRIER MODEL FOR IMMUNOLOGICAL STUDIES” (WISCONSIN ALUMNI RESEARCH FOUNDATION, priority 2020, published 2023).

Tested on: matured hPSC-derived ECs (Passage 5)
Assay: CHIR treatment in matured endothelium, immunocytochemistry
Type: cell-based, human
Method: For extended culture, ECs were selectively dissociated and replated as previously described (Nishihara et al., 2020). Cells were incubated with Accutase until endothelial cells appeared round, typically 2-3 min at 37° C. The plate was tapped to release the ECs while SMLCs remained attached, and the EC-enriched cell suspension transferred to 4× volume of DMEM/F-12 and centrifuged for 5 min, 200×g. Cells were resuspended in hECSR medium and seeded on a new collagen IV-coated plate at approximately 3×10^4 cells/cm^2. hECSR medium was replaced every other day until confluent (typically 6 days). The selective dissociation and seeding described above was repeated, and hECSR medium was again replaced every other day until confluent (typically 6 days). We denote this time point “Passage 3.” In one experiment, these steps were repeated for another two passages. Except where indicated, CHIR 99021 or vehicle (DMSO) was included in the hECSR medium for the entire duration of culture.
Immunocytochemistry was performed in 24-well plates. […]
Images were analyzed using FIJI (ImageJ) software. For epifluorescence images, 5 fields (20×) were analyzed per well, with 3-4 wells per treatment condition. For quantification of cell number, EC colonies were manually outlined, and the Analyze Particles function was used to estimate the number of nuclei within the EC colonies. Nuclei outside the EC colonies were manually counted. EC purity (% EC) was calculated as the number of nuclei within EC colonies relative to total nuclei. To estimate % GLUT-1^+ ECs, cells within the EC colonies with membrane-localized GLUT-1 immunoreactivity (e.g., arrowheads in FIG. 24B) were manually counted. To estimate % Ki67^+ ECs, cells within the EC colonies with at least one nuclear-localized Ki67 punctum were manually counted. For quantification of fluorescence intensity in epifluorescence images, EC colonies were manually outlined, and the Measure function was used to obtain the mean fluorescence intensity for each image channel (fluorophore). A cell-free area of the plate was similarly quantified for background subtraction. […]

Cc1c[nH]c(-c2cnc(NCCNc3ccc(C#N)cn3)nc2-c2ccc(Cl)cc2Cl)n1 [CHIR, CHIR 99021]
increase in GLUT-1 abundance (CHIR for 6 days after 4 passages, vs DMSO): approximately 1.5 fold
EC number (CHIR in matured ECs): slight decrease in EC number
claudin-5 expression (CHIR in matured ECs): variable effects
